Patent US20090297566A1, “Oxygen-impervious packaging with optional oxygen scavenger, stabilized thyroid hormone compositions and methods for storing thyroid hormone pharmaceutical compositions” (priority 2004, published 2009)

Tests used:
[1] = Effects of desiccation and oxygen on levothyroxine sodium raw material, forced degradation at 60°C, potency; assay type: physicochemical; conditions: for % Potency: raw material
Protocol: (§1) This study investigated the effects of humidity and oxygen on the storage of levothyroxine sodium raw material under forced degradation conditions (60° C.).
(§2) High temperature and humidity was known to contribute to potency loss of levothyroxine sodium. Thus, a desiccant was added to the packaging create a low moisture environment to test the effect of reduced humidity upon the shelf life of the product. This study also used a FreshPax Pharma O2 Absorbing Packet as an oxygen scavenger. This oxygen scavenger reduced the level of oxygen in the package to less than 1%. All samples were packaged in 40 cc HDPE bottles.
(§3) • 1. 60 g of levothyroxine sodium raw material was selected. • 2. The levothyroxine was assayed in duplicate to establish the initial potency under laboratory conditions. • 4. The samples were preparation under laboratory conditions. • 5. 3 g was distributed to each of eighteen 40 cc bottles. • 6. 1 g desiccant was added to each of six bottles. • 7. A single FreshPax Pharma O2 Absorbing Packet was added to each of six bottles. • 8. The remaining six bottles were packaged without desiccant or a packet of FreshPax Pharma O2. • 9. The bottles were capped and sealed using a Compak Jr Sealer and appropriate CRC caps. • 10. All bottles were placed in a 60° C. oven. • 11. The samples were tested for potency, as described in Example 2 and water content at 1-week intervals for three weeks, with a previously unopened sample bottle being tested at each interval. Potency analysis was conducted in duplicate weighings from each bottle correcting for actual water content.

[2] = Water content of levothyroxine sodium raw material during forced degradation at 60°C; assay type: physicochemical; conditions: for % H2O: raw material
Protocol: as §1, §2, §3

[3] = raw material with FreshPax Pharma O2 packet, 60°C, three weeks
[4] = 3 g in 40 cc HDPE bottle, Initial
[5] = B: FreshPax Pharma O2 packet, 60°C, 1 wk
[6] = B: FreshPax Pharma O2 packet, 60°C, 2 wk
[7] = B: FreshPax Pharma O2 packet, 60°C, 3 wk

N[C@@H](Cc1cc(I)c(Oc2cc(I)c(O)c(I)c2)c(I)c1)C(=O)[O-].[Na+] [Levothyroxine Sodium, 3,3′,5,5′-tetraiodo-L-thyronine sodium salt]
stability ([1]; raw material packaged with FreshPax Pharma O2 packet, 60°C, three weeks): stable | potency loss ([1]; raw material with 1 g silica gel desiccant, 60°C, three-week study): 2.8% | potency loss [1, 3]: 0.4% | % Potency [1, 4]: 99.2% | % Potency ([1]; A: 1 g silica gel, 60°C, 1 wk): 97.6% | % Potency ([1]; A: 1 g silica gel, 60°C, 2 wk): 97.2% | % Potency ([1]; A: 1 g silica gel, 60°C, 3 wk): 96.4% | % Potency [1, 5]: 99.8% | % Potency [1, 6]: 99.5% | % Potency [1, 7]: 98.8% | % Potency ([1]; C: API alone, 60°C, 1 wk): 99.6% | % Potency ([1]; C: API alone, 60°C, 2 wk): 98% | % Potency ([1]; C: API alone, 60°C, 3 wk): 97.3% | loss of water content ([2]; raw material with 1 g silica gel desiccant, 60°C, within the first week): over 1% | water content deviation from original water content [2, 3]: ≤ 1% | % H2O [2, 4]: 9.9% | % H2O ([2]; A: 1 g silica gel, 60°C, 1 wk): 8.5% | % H2O ([2]; A: 1 g silica gel, 60°C, 2 wk): 8.7% | % H2O ([2]; A: 1 g silica gel, 60°C, 3 wk): 8.8% | % H2O [2, 5]: 9.1% | % H2O [2, 6]: 9.6% | % H2O [2, 7]: 9.6% | % H2O ([2]; C: API alone, 60°C, 1 wk): 9.4% | % H2O ([2]; C: API alone, 60°C, 2 wk): 8.9% | % H2O ([2]; C: API alone, 60°C, 3 wk): 8.8%
